Molecular target: T1, HCV NS3 helicase NS3h_1b(con1) (Hepatitis C virus genotype 1b, UniProt Q9WMX2)
T1 construct: truncated C-terminally His-tagged NS3 proteins lacking the N-terminal protease, called NS3h; His-tag (C); made in house
Assay: MBHA screen of NCI mechanistic set library at 20 μM (percent inhibition, compound interference)
Type: biochemical
Conditions: compounds at 20 μM; for Inh. (%) (Inhibition): calculated from Equation 1
Summary of the method: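 Molecular beacon-based DNA unwinding assay; compounds screened at 20 μM in triplicate, with DMSO-only negative and 500 nM dT20 positive controls. Fluorescence (ex 643/em 670 nm) was read before and 30 min after adding ATP to 1 mM. Percent inhibition came from the change relative to DMSO controls; interference from pre-ATP fluorescence versus DMSO controls.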

[1] = MBHA with DNA substrate, assay interference calculated with Equation 2
[2] = assay interference calculated with Equation 2 (fluorescence vs DMSO-only controls before ATP)

T1 sequence (Q9WMX2 1192-1657): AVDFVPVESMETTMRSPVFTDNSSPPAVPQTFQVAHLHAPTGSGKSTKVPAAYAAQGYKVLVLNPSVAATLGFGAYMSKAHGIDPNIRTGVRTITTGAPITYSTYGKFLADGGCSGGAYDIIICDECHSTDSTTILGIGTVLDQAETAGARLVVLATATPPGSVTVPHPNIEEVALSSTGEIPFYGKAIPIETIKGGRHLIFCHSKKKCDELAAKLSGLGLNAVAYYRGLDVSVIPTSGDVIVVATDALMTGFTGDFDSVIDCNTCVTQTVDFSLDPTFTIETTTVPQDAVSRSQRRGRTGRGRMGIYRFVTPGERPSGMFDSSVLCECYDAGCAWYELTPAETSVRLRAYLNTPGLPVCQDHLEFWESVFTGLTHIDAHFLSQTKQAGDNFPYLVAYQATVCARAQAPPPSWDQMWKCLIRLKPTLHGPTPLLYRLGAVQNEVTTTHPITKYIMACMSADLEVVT

Int.* (Ratio) (Interference) [1]	Inh. (%) (Inhibition) (MBHA with DNA substrate)	Inh. (%) (Inhibition) (MBHA with a DNA substrate)	Int.* (Ratio) (Interference) [2]	Compound
0.93	−8.0	–	–	COc1ccc2cc(CN3CCC(C4CCN(Cc5ccc6cc(OC)ccc6c5)CC4)CC3)ccc2c1.Cl [Compound 683792]
–	–	−35.3	1.04	O=C1Cc2c(-c3ccccc3)cc(-c3cccc(Cl)c3)nc2-c2ccccc2N1 [Compound 684480]
–	–	−5.0	0.91	CCOC(=O)NC(Nc1ccc(F)cc1)(C(=O)OCC)C(F)(F)F (centres unmarked) [Compound 684845]
0.91	−12.1	–	–	CC(C)[Si]1(C(C)C)OCC2OC(n3cnc4c(N)ncnc43)C(N)C2O[Si](C(C)C)(C(C)C)O1 (centres unmarked) [Compound 687330]
–	–	−29.0	1.00	COc1ccc(/C=C2\CCCc3ccccc3C2=O)cc1 [Compound 687667]
–	–	−5.2	0.93	C=CC(=O)N1C/C(=C\c2ccc(Cl)cc2)C(=O)/C(=C/c2ccc(Cl)cc2)C1 [Compound 687849]
0.94	−11.6	–	–	C=CC(=O)N1C/C(=C\c2ccc([N+](=O)[O-])cc2)C(=O)/C(=C/c2ccc([N+](=O)[O-])cc2)C1 [Compound 687852]
0.96	−1.6	–	–	CNC(=O)c1cc(NC(=O)N(CCC#N)CCN(C(=O)N[C@@H](Cc2ccccc2)C(=O)N[C@@H](CC(C)C)C(=O)NC)c2ccccc2)ccc1OC [Compound 688363]
–	–	9.3	1.02	COc1cc(OC)c2c(C)cc(=O)oc2c1 [Compound 688795]
1.04	−10.4	–	–	CCCCCC(/C=C/[C@@H]1CC(=O)C[C@H]1O[Si](C)(C)C(C)(C)C)OCOCCOC (some centres unmarked) [Compound 689228]
–	–	−22.3	0.87	O=C(OCC12CC3CC(CC(C3)C1)C2)c1ccc(NCc2cc(O)ccc2O)cc1 [Compound 689857]
1.01	−2.4	–	–	COc1ccc2nc3cc([N+](=O)[O-])ccc3c(NNc3ccccc3)c2c1 [Compound 689872]
0.82	−10.3	–	–	O=[N+]([O-])c1cccc2nc3ccccc3c(NCCCNc3c4ccccc4nc4cccc([N+](=O)[O-])c34)c12 [Compound 690634]
0.93	−18.5	–	–	CCOC(=O)c1ccc(-c2cc(C)no2)[nH]1 [Compound 693053]
–	–	−26.4	0.98	C/C(=N\Nc1nc2ccccc2s1)c1ccncn1 [Compound 693632]
0.99	13.3	–	–	CON(C)C(=O)C1CCCO1 (centres unmarked) [Compound 695218]
–	–	11.6	1.01	CN(C)CC1CCC/C(=C\c2ccc(OC(=O)/C=C/c3ccccc3)cc2)C1=O.Cl (centres unmarked) [Compound 697443]
–	–	−23.8	0.97	CC(=O)NC1C(OCc2ccccc2)OC(CO)C(O)C1OC(C)C(=O)NC(C(=O)NC(CCC(=O)NCCCCNc1c2ccccc2nc2cccc([N+](=O)[O-])c12)C(N)=O)C(C)C (centres unmarked) [Compound 697468]
1.07	−14.4	–	–	Cc1ccc(S(=O)(=O)c2ccc([N+](=O)[O-])o2)cc1 [Compound 697923]
0.98	−16.0	–	–	Cc1nnc(-n2c(O)cc(=O)n(-c3ccccc3)c2=S)nc1/C=C/c1ccc(N(C)C)cc1 [Compound 698031]

Compound	Int.* (Ratio) (Interference) [1]	Inh. (%) (Inhibition) (MBHA with DNA substrate)	Inh. (%) (Inhibition) (MBHA with a DNA substrate)	Int.* (Ratio) (Interference) [2]
COC(=O)C1=C(C(=O)OC)SC2(S1)C(C(=O)OC)=C(C(=O)OC)Sc1c2ssc1=O [Compound 686349]	0.85	−14.4	–	–
CC1=C(N2CC2)C(=O)C(CO)=C(N2CC2)C1=O [Compound 697726]	–	–	−5.6	0.90

— patent publication US9464064B2, “HCV helicase inhibitors and methods of use thereof” (University of Kansas, priority 2011, dated 2016)
